Test results: patent US6486343B1, “Substituted phenyl keto enols as pesticides and herbicides” (Bayer Aktiengesellschaft, priority 1996, dated 2002)

Experiments:
Format in all cases: in vivo
[1] = system: spider mite (Tetranychus urticae); assay: Tetranychus test (OP resistant/dip treatment); details: active compound concentration 0.1%; after 5 days; bean plants dipped
Experimental: Tetranychus Test (OP Resistant/dip Treatment)
Solvent: 3 parts by weight of dimethylformamide
Emulsifier: 1 part by weight of alkylaryl polyglycol ether
To produce a suitable preparation of active compound, 1 part by weight of active compound is mixed with the stated amount of solvent and the stated amount of emulsifier, and the concentrate is diluted with water to the desired concentration.
Bean plants (Phaseolus vulgaris) heavily infected by all stages of the spider mite (Tetranychus urticae) are dipped into a preparation of the active compound of the desired concentration.
After the specified period of time, the destruction in % is determined. 100% means that all spider mites have been killed; 0% means that none of the spider mites have been killed.

[2] = system: caterpillars of the diamond-back moth (Plutella maculipennis); assay: Plutella test; details: active compound concentration 0.1%; after 7 days; cabbage leaves dipped
Experimental: Plutella Test Solvent: 7 parts by weight of dimethylformamide Emulsifier: 1 part by weight of alkylaryl polyglycol ether To produce a suitable preparation of active compound, 1 part by weight of active compound is mixed with the stated amount of solvent and the stated amount of emulsifier, and the concentrate is diluted with water to the desired concentration. Cabbage leaves (Brassica oleracea) are treated by being dipped into the preparation of active compound of the desired concentration and are infested with caterpillars of the diamond-back moth (Plutella maculipennis) while the leaves are still moist. After the specified period of time, the destruction in % is determined. 100% means that all the caterpillars have been killed; 0% means that none of the caterpillars have been killed.

[3] = system: mustard beetle larvae (Phaedon cochleariae); assay: Phaedon larvae test; details: active compound concentration 1000 ppm; after 7 days; cabbage leaves dipped
Experimental: (§1) Phaedon Larvae Test Solvent: 7 parts by weight of dimethylformamide Emulsifier: 1 part by weight of alkylaryl polyglycol ether To produce a suitable preparation of active compound, 1 part by weight of active compound is mixed with the stated amount of solvent and the stated amount of emulsifier, and the concentrate is diluted with water to the desired concentration. Cabbage leaves (Brassica oleracea) are treated by being dipped into the preparation of the active compound of the desired concentration and are infested with mustard beetle larvae (Phaedon cochleariae) while the leaves are still moist. After the specified period of time, the destruction in % is determined. 100% means that all the beetle larvae have been killed; 0% means that none of the beetle larvae have been killed.

[4] = system: larvae of the green rice leafhopper (Nephotettix cincticeps); assay: Nephotettix test; details: active compound concentration 0.1%; after 6 days; rice seedlings dipped
Experimental: as §1, with “Nephotettix” for “Phaedon Larvae”, “Rice seedlings (Oryzae sativa)” for “Cabbage leaves (Brassica oleracea)”, “with” for “with mustard beetle”, “of the green rice leafhopper (Nephotettix cincticeps)” for “(Phaedon cochleariae)”, “seedlings” for “leaves”, “leafhoppers” for “beetle larvae”

SMILES | destruction in % [1] [%] | destruction in % [2] [%] | destruction in % [3] [%] | destruction in % [4] [%]
Cc1ccc(Cl)c(C)c1C1=C(OC(=O)C(C)(C)C)C2(CCCCC2)OC1=O [I-2-b-1] | 100 | – | – | –
CCOC(=O)OC1=C(c2c(C)ccc(Cl)c2C)C(=O)NC12CCC(C)CC2 (centres unmarked) [I-1-c-1] | – | 100 | 100 | –
Cc1ccc(Cl)c(C)c1C1=C(O)C2(CCC(C)CC2)NC1=O (centres unmarked) [I-1-a-1] | 100 | – | – | 100
Cc1ccc(Cl)c(C)c1C1=C(OC(=O)CC(C)C)C2(CCC(C)CC2)NC1=O (centres unmarked) [I-1-b-1] | – | 100 | 100 | 100
